Tests used:
Format in all cases: cell-based
PTGER4 (EP4) = biological target: T1, PTGER4 (EP4) (Homo sapiens, UniProt P35408); assay: hEP4 b-Arrestin Assay (PathHunter HEK 293 PTGER4 b-arrestin cells, PGE2 20 nM); conditions: antagonistic activity, beta-arrestin assay, HEK 293 PTGER4 cells, PGE2 20 nM (EC80); read-out: hEP4 b-arr IC50
T1 construct: host or cells: HEK 293 (PathHunter, stably transfected)
Procedure: The antagonistic activities of the compounds of formula (I) on the EP2 and EP4 receptors are also determined in accordance with the following experimental method.
The assay is using the PathHunter™ HEK 293 PTGER2 and PTGER4 b-arrestin cell lines from DiscoverX. The system is based on the Enzyme Fragment Complementation Technology. Two complementing fragments of the b-galactosidase enzyme are expressed within stably transfected cells. The larger portion of b-gal, termed EA for Enzyme Acceptor, is fused to the C-terminus of b-arrestin 2. The smaller fragment, termed ProLink™ tag, is fused to PTGER2 (EP2) or PTRGER4 (EP4) at the C-terminus. Upon activation, b-arrestin is recruited which forces the interaction of ProLink and EA, allowing complementation of the two fragments of b-gal and the formation of a functional enzyme which is capable of hydrolysing the substrate and generating a chemiluminescent signal.
The HEK 293 PTGER4 b-arrestin cells (DiscoverX 93-030-4C1) are detached from culture dishes with a cell dissociation buffer (Invitrogen, 13151-014), and collected in growing medium (GM: DMEM+Glutamax-I (Invitrogen 32430)/10% FCS, 1% Penicilin/streptomycin). 5000 cells per well of a 384 well plate (white with white bottom Greiner 781080) are seeded in 20 ul per well of GM. Plate is incubated at 37° C., 5% CO2 for 24 hours.
Stock solutions of test compounds are made at a concentration of 10 mM in DMSO, and serially diluted in DMSO to concentrations required for inhibition dose response curves (tested concentration range 10 μM-2 nM or 1 μM-0.2 nM).
PGE2 (Cayman 14010, stock solution: 100 μM in DMSO) is used as agonist at 20 nM final concentration, corresponding to EC80.
Five microliters of diluted compounds are transferred into the assay plate. Plate is pre-incubated 15 minutes at 37° C. Then five microliters of PGE2 (final conc. 20 nM) are transferred into the assay plate. Plate is incubated 120 minutes at 37° C.
PathHunter Glo Detection Kit components are thawed and mix according to manufacturer's instructions: 1 part Galacton Star Substrate with 5 parts Emerald II™ Solution, and 19 parts of PathHunter Cell Assay Buffer, respectively. Twelve μl of reagent are transferred to the assay plate and incubate for 1 hour at room temperature in the dark. Luminescence counts are read on a BMG Fluostar Optima reader according to manufacturer's instructions.
For each compound concentration calculate of the percentage of activity compared to DMSO control value as average ±STDEV. (each concentration is measured in duplicate)
IC50 values and curves are generated with XLfit software (IDBS) using Dose-Response One Site model 203. When compounds were measured multiple times, mean values are given.

EP4 = biological target: T2, EP4 (Homo sapiens, UniProt P35408); assay: hEP4 cAMP Assay (BT549 breast cancer cells, HTRF cAMP, PGE2 6 nM); conditions: antagonistic activity, PGE2 6 nM (EC80)
T2 construct: BT549 breast cancer cells, express high endogenous EP4 levels and very low EP2 levels; host or cells: BT549 breast cancer cells
In short: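 BT549 cells (endogenous EP4, very low EP2) in HBSS/20 mM HEPES/0.2% BSA/2 mM IBMX, pre-incubated 45 min RT with compound, then stimulated 30 min RT with PGE2 6 nM (EC80). cAMP read by HTRF competitive immunoassay (665/620 nm), converted via calibrator to % of DMSO control; IC50 from duplicate dose-response curves.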

PTGER2 (EP2) = biological target: T3, PTGER2 (EP2) (Homo sapiens, UniProt P43116); assay: hEP2 b-Arrestin Assay (PathHunter HEK 293 PTGER2 b-arrestin cells, PGE2 5 μM); conditions: antagonistic activity, beta-arrestin assay, HEK 293 PTGER2 cells, PGE2 5 μM (EC80); read-out: hEP2 b-arr IC50
T3 construct: host or cells: HEK 293 (PathHunter, stably transfected)
In short: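 PathHunter enzyme-fragment complementation in HEK 293 cells: compounds (10 μM-2 nM or 1 μM-0.2 nM) pre-incubated 15 min at 37 °C, then 5 μM PGE2 (EC80) for 120 min at 37 °C. Chemiluminescence read after 1 h detection; IC50 from duplicate dose-response fits, means of repeats.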

EP2 = biological target: T4, EP2 (Homo sapiens, UniProt P43116); assay: hEP2 cAMP Assay (SF295 glioblastoma cells, HTRF cAMP, PGE2 75 nM); conditions: antagonistic activity, PGE2 75 nM (EC80)
T4 construct: SF295 glioblastoma cells express high endogenous EP2 and no EP4; host or cells: SF295 glioblastoma cells
In short: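 IC50 values derive from duplicate-point curves of percent cAMP relative to DMSO, read by HTRF (665/620 nm) against a cAMP calibrator. Compounds (30 μM to 0.01 nM ranges) were given 45 min at room temperature before 30 min with 75 nM PGE2, in EP2-only SF295 cells with 2 mM IBMX.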

T3 sequence (P43116 whole entry): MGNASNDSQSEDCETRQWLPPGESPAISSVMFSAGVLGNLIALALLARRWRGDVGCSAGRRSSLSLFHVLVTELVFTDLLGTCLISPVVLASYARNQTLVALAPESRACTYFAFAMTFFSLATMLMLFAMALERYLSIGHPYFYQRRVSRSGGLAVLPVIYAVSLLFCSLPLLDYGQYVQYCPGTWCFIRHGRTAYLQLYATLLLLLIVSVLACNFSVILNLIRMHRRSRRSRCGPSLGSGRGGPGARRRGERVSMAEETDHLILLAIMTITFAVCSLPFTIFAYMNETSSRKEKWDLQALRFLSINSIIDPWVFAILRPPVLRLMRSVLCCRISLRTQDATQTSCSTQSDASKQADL
T4 sequence (P43116 whole entry): as above
T2 sequence (P35408 whole entry): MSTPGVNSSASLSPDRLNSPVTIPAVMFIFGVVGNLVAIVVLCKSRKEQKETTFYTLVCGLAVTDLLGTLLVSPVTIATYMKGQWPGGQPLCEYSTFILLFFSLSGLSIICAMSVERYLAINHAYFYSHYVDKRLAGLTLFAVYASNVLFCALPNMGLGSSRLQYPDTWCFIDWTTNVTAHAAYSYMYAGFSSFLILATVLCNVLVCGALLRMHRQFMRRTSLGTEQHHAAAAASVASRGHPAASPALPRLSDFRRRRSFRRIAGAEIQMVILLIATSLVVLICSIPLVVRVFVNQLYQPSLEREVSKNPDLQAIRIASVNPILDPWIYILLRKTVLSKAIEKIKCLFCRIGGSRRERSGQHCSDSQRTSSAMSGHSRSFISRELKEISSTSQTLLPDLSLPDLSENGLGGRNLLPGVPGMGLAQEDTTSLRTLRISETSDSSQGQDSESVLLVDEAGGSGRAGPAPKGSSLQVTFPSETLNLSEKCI
T1 sequence (P35408 whole entry): as above

Structure (SMILES)	IC50 (PTGER4 (EP4)) [µM]	IC50 (EP4) [µM]	IC50 (PTGER2 (EP2)) [µM]	IC50 (EP2) [µM]
CCOc1cc(-c2cc(NCCc3c(C#N)ccc4ccccc34)ncn2)ccc1C(=O)O [Example 67, 4-{6-[2-(2-Cyano-naphthalen-1-yl)-ethylamino]-pyrimidin-4-yl}-2-ethoxy-benzoic acid]	0.499	0.309	0.029	0.025
COc1ccc2ccccc2c1CCNc1cc(-c2ccc(C(=O)O)c(OCCO)c2)ncn1 [Example 155, 2-(2-Hydroxy-ethoxy)-4-{6-[2-(2-methoxy-naphthalen-1-yl)-ethylamino]-pyrimidin-4-yl}-benzoic acid]	2.23	0.296	0.045	0.016
CCOc1cc(-c2cc(NCCc3c(Br)cc(F)c4ccccc34)ncn2)ccc1C(=O)O [Example 181, 4-{6-[2-(2-Bromo-4-fluoro-naphthalen-1-yl)-ethylamino]-pyrimidin-4-yl}-2-ethoxy-benzoic acid]	0.887		0.962	
CCOc1cc(-c2cc(NCCc3c(OCC)ccc4sccc34)ncn2)ccc1C(=O)O [Example 187, 2-Ethoxy-4-{6-[2-(5-ethoxy-benzo[b]thiophen-4-yl)-ethylamino]-pyrimidin-4-yl}-benzoic acid]	0.563		0.01	
CCOc1cc(-c2cc(NCCc3c(OC)ccc4ccccc34)ncn2)ccc1Cc1noc(=O)[nH]1 [Example 191, 3-(2-Ethoxy-4-{6-[2-(2-methoxy-naphthalen-1-yl)-ethylamino]-pyrimidin-4-yl}-benzyl)-[1,2,4]oxadiazol-5(4H)-one]	0.219		0.023	
CCOc1cc(-c2cc(NCCc3ccc(Br)c4ccn(C)c34)ncn2)ccc1C(=O)O [Example 180, 4-{6-[2-(4-Bromo-1-methyl-1H-indol-7-yl)-ethylamino]-pyrimidin-4-yl}-2-ethoxy-benzoic acid]	0.235		0.441	
CCOc1cc(-c2cc(NCCc3cc(F)cc4sccc34)ncn2)ccc1CC(=O)O [Example 165, (2-Ethoxy-4-{6-[2-(6-fluoro-benzo[b]thiophen-4-yl)-ethylamino]-pyrimidin-4-yl}-phenyl)-acetic acid]	0.555		0.864	
CSc1cc(-c2cc(NCCc3cccc4c(F)cccc34)ncn2)ccc1C(=O)O [Example 172, 4-{6-[2-(5-Fluoro-naphthalen-1-yl)-ethylamino]-pyrimidin-4-yl}-2-methylsulfanyl-benzoic acid]	0.605		0.045	

Further molecules by falling IC50 (PTGER4 (EP4)), results first:

IC50 (PTGER4 (EP4)) [µM]	IC50 (EP4) [µM]	IC50 (PTGER2 (EP2)) [µM]	IC50 (EP2) [µM]	Structure (SMILES)
0.363		0.628		CCOc1cc(-c2cc(NCCc3ccc(Br)c4ccn(C)c34)ncn2)ccc1CC(=O)O [Example 161, (4-{6-[2-(4-Bromo-1-methyl-1H-indol-7-yl)-ethylamino]-pyrimidin-4-yl}-2-ethoxy-phenyl)-acetic acid]
0.245		0.003		COc1ccc2c(ccn2C)c1CCNc1cc(-c2ccc(C(=O)O)c(SC)c2)ncn1 [Example 175, 4-{6-[2-(5-Methoxy-1-methyl-1H-indol-4-yl)-ethylamino]-pyrimidin-4-yl}-2-methylsulfanyl-benzoic acid]
0.206	0.076	0.133	0.206	CCSc1cc(-c2cc(NCCc3ccc(C)c4ccccc34)ncn2)ccc1C(=O)O [Example 100, 2-Ethylsulfanyl-4-{6-[2-(4-methyl-naphthalen-1-yl)-ethylamino]-pyrimidin-4-yl}-benzoic acid]
0.016		0.005		CCOc1cc(-c2cc(NCCc3c(OC)ccc4ccccc34)ncn2)ccc1-c1noc(=S)[nH]1 [Example 189, 3-(2-Ethoxy-4-{6-[2-(2-methoxy-naphthalen-1-yl)-ethylamino]-pyrimidin-4-yl}-phenyl)-[1,2,4]-oxadiazole-5(4H)-thione]
0.01	0.027	0.007	0.04	CCOc1cc(-c2cc(NCCc3c(OC)ccc4ncccc34)ncn2)sc1-c1noc(=O)[nH]1 [Example 142, 3-(3-Ethoxy-5-{6-[2-(6-methoxy-quinolin-5-yl)-ethylamino]-pyrimidin-4-yl}-thiophen-2-yl)-[1,2,4]oxadiazol-5(4H)-one]

Source: US11446298B2, “Pyrimidine derivatives” (Idorsia Pharmaceuticals Ltd, priority 2017, dated 2022)
